Results on 12 compounds are retold here after ChEMBL document CHEMBL5365424, “Development of a highly potent and selective degrader of LRRK2” (Bioorg Med Chem Lett, 2023).

Active and inactive are the calls of the source. The calls are words filed in the database; no cut-off is given here.

The target in assay [1] is T1, Protein cereblon/Leucine-rich repeat serine/threonine-protein kinase 2 (Mus musculus) (UniProt Q5S006+Q8C7D2). Put plainly: Protac activity at CRBN/LRRK2 in MEF cells assessed as induction of LRRK2 degradation at 1 uM incubated for 48 hrs in presence of cereblon degrader ZXH-03-153 by Western blot analysis. It is filed as cell-based.
In assay [2] the target is T1, Protein cereblon/Leucine-rich repeat serine/threonine-protein kinase 2 (Mus musculus). Description: Protac activity at CRBN/LRRK2 in MEF cells assessed as induction of LRRK2 degradation at 1 uM incubated for 48 hrs by Western blot analysis. It is filed as cell-based. For orientation: A western blot detects proteins with antibodies after separation by electrophoresis.

Assay [3] concerns the target Cereblon/Ikaros (Homo sapiens) (UniProt Q96SW2+Q13422). Description: Protac activity at CRBN/IKZF1 in human MOLT-4 cells assessed as induction of IKZF1 degradation at 1 uM by proteomic analysis. It is filed as cell-based.
Assay [4] has as its target T2, Protein cereblon/Cyclin-G-associated kinase (Mus musculus) (UniProt Q8C7D2+Q99KY4). Description: Protac activity at CRBN/GAK in LRRK2 knockout MEF cells assessed as induction of GAK degradation at 1 uM measured after 48 hrs by Western blot analysis. It is filed as cell-based.
In assay [5] the test system is Leucine-rich repeat serine/threonine-protein kinase 2 (Homo sapiens), Q5S007 [G2019S]. Description: Inhibition of human partial length LRRK2 G2019S mutant (H970 to E2527 residues) expressed in mammalian expression system at 1 uM by Kinomescan assay relative to control.
Assay [6] has as its target T2, Protein cereblon/Cyclin-G-associated kinase (Mus musculus). Put plainly: Protac activity at CRBN/GAK in MEF cells assessed as induction of GAK degradation at 1 uM measured after 48 hrs by Western blot analysis. It is filed as cell-based.
For assay [7], the system named is Protein cereblon/Leucine-rich repeat serine/threonine-protein kinase 2 (Mus musculus), Q5S006+Q8C7D2 [R1441C]. Put plainly: Protac activity at CRBN/LRRK2 R1441C mutant in MEF cells assessed as induction of LRRK2 degradation at 1 uM incubated for 48 hrs in presence of MLi-2 by Western blot analysis. It is filed as cell-based.
The target of assay [8] is Protein cereblon/Cyclin-G-associated kinase (Homo sapiens) (UniProt O14976+Q96SW2). Description: Protac activity at CRBN/GAK in human MOLT-4 cells assessed as induction of GAK degradation at 1 uM by proteomic analysis. It is filed as cell-based.
Assay [9] addresses T1, Protein cereblon/Leucine-rich repeat serine/threonine-protein kinase 2 (Mus musculus). Put plainly: Protac activity at CRBN/LRRK2 in MEF cells assessed as induction of LRRK2 degradation at 1 uM incubated for 48 hrs in the presence of MLi-2 by Western blot analysis. It is filed as cell-based.
The target of assay [10] is Leucine-rich repeat serine/threonine-protein kinase 2 (Mus musculus) (UniProt Q5S006). Put plainly: Inhibition of LRRK2 in MEF cells assessed as reduction in Rab10 phosphorylation at 10 to 1000 nM measured after 24 to 48 hrs by Western blot analysis. Conditions: dose 10-1000 nM, time 24-48 hrs. It is filed as cell-based.
Assay [11] has the same target. Description: Inhibition of LRRK2 in MEF cells assessed as reduction in pS935 phosphorylation at 10 to 1000 nM measured after 24 to 48 hrs by Western blot analysis. It is filed as cell-based. Conditions: dose 10-1000 nM, time 24-48 hrs.
The target in assay [12] is Leucine-rich repeat serine/threonine-protein kinase 2 (Homo sapiens, UniProt Q5S007, G2019S). Put plainly: Inhibition of recombinant human GST-tagged LRRK2 G2019S mutant (970 to 2527 residues) expressed in insect cells using LRRKtide as substrate measured after 1 hr by Adapta TR-FRET assay. On the set-up: species or system Insect cell.
Assay [13] addresses Protein cereblon/Leucine-rich repeat serine/threonine-protein kinase 2 (Homo sapiens) (UniProt Q5S007+Q96SW2). Description: Protac activity at CRBN/LRRK2 in human MOLT-4 cells assessed as induction of LRRK2 degradation at 1 uM by proteomic analysis. It is filed as cell-based.
The test system of assay [14] is Protein cereblon/Leucine-rich repeat serine/threonine-protein kinase 2 (Mus musculus), Q5S006+Q8C7D2 [R1441C]. Put plainly: Protac activity at CRBN/LRRK2 R1441C mutant in MEF cells assessed as induction of LRRK2 degradation at 1 uM incubated for 48 hrs in presence of cereblon degrader ZXH-03-153 by Western blot analysis. It is filed as cell-based.
In assay [15] the target is T3, Leucine-rich repeat serine/threonine-protein kinase 2 (Homo sapiens, UniProt Q5S007). Description: Inhibition of recombinant human GST-tagged LRRK2 (970 to 2527 residues) expressed in insect cells using LRRKtide as substrate measured after 1 hr by Adapta TR-FRET assay. Further details: species or system Insect cell. (Time-resolved FRET reads energy transfer from a long-lived donor to a nearby acceptor.)

In assay [16] the test system is Protein cereblon/Leucine-rich repeat serine/threonine-protein kinase 2 (Mus musculus), Q5S006+Q8C7D2 [R1441C]. Description: Protac activity at CRBN/LRRK2 R1441C mutant in MEF cells assessed as induction of LRRK2 degradation at 1 uM incubated for 48 hrs by Western blot analysis. It is filed as cell-based.
Assay [17] concerns the target T3, Leucine-rich repeat serine/threonine-protein kinase 2. Put plainly: Inhibition of human wild-type partial length LRRK2 (H970 to E2527 residues) expressed in mammalian expression system at 1 uM by Kinomescan assay relative to control.
The target of assay [18] is Protein cereblon/Zinc finger protein Aiolos (Homo sapiens) (UniProt Q96SW2+Q9UKT9). Description: Protac activity at CRBN/IKZF3 in human MOLT-4 cells assessed as induction of IKZF3 degradation at 1 uM by proteomic analysis. It is filed as cell-based.
Assay [19] concerns the target T1, Protein cereblon/Leucine-rich repeat serine/threonine-protein kinase 2 (Mus musculus). Description: Protac activity at CRBN/LRRK2 in MEF cells assessed as induction of LRRK2 degradation at 1000 nM incubated for 48 hrs by Western blot analysis. It is filed as cell-based.
For assay [20], the target named is Protein cereblon/E3 ubiquitin-protein ligase ZFP91 (Homo sapiens) (UniProt Q96SW2+Q96JP5). Description: Protac activity at CRBN/ZFP91 in human MOLT-4 cells assessed as induction of ZFP91 degradation at 1 uM by proteomic analysis. It is filed as cell-based.
In assay [21] the target is T1, Protein cereblon/Leucine-rich repeat serine/threonine-protein kinase 2 (Mus musculus). Description: Protac activity at CRBN/LRRK2 in MEF cells assessed as induction of LRRK2 degradation at 10 to 1000 nM incubated for 1 to 48 hrs by Western blot analysis. Conditions: dose 10-1000 nM, time 1-48 hrs. It is filed as cell-based.
Assay [22] concerns the target Leucine-rich repeat serine/threonine-protein kinase 2 (Mus musculus) (UniProt Q5S006). Put plainly: Induction of LRRK2 degradation in MEF cells at 100 nM measured after 2 hrs by Western blot analysis. It is filed as cell-based.
Assay [23] deals with T2, Protein cereblon/Cyclin-G-associated kinase (Mus musculus). Put plainly: Induction of GAK degradation in MEF cells at 1 uM measured after 48 hrs by Western blot analysis. It is filed as cell-based.
The target of assay [24] is Leucine-rich repeat serine/threonine-protein kinase 2 (Mus musculus) (UniProt Q5S006). Put plainly: Induction of LRRK2 degradation in MEF cells by Western blot analysis. It is filed as cell-based.
In assay [25] the target is von Hippel-Lindau disease tumor suppressor/Leucine-rich repeat serine/threonine-protein kinase 2 (Mus musculus) (UniProt Q5S006+P40338). Put plainly: Protac activity at VHL/LRRK2 in MEF cells assessed as induction of LRRK2 degradation measured after 48 hrs by Western blot analysis. It is filed as cell-based.
In assay [26] the test system is von Hippel-Lindau disease tumor suppressor/Leucine-rich repeat serine/threonine-protein kinase 2 (Mus musculus), Q5S006+P40338 [R1441C]. Put plainly: Protac activity at VHL/LRRK2 R1441C mutant in MEF cells assessed as induction of LRRK2 degradation incubated for 48 hrs by Western blot analysis. It is filed as cell-based.
For assay [27], the target named is Leucine-rich repeat serine/threonine-protein kinase 2 (Mus musculus) (UniProt Q5S006). Put plainly: Inhibition of LRRK2 in MEF cells assessed as reduction in pS935 phosphorylation measured after 24 to 48 hrs by Western blot analysis. Conditions: time 24-48 hrs. It is filed as cell-based.

T3 sequence (Q5S007 whole entry, the tested form may be a part): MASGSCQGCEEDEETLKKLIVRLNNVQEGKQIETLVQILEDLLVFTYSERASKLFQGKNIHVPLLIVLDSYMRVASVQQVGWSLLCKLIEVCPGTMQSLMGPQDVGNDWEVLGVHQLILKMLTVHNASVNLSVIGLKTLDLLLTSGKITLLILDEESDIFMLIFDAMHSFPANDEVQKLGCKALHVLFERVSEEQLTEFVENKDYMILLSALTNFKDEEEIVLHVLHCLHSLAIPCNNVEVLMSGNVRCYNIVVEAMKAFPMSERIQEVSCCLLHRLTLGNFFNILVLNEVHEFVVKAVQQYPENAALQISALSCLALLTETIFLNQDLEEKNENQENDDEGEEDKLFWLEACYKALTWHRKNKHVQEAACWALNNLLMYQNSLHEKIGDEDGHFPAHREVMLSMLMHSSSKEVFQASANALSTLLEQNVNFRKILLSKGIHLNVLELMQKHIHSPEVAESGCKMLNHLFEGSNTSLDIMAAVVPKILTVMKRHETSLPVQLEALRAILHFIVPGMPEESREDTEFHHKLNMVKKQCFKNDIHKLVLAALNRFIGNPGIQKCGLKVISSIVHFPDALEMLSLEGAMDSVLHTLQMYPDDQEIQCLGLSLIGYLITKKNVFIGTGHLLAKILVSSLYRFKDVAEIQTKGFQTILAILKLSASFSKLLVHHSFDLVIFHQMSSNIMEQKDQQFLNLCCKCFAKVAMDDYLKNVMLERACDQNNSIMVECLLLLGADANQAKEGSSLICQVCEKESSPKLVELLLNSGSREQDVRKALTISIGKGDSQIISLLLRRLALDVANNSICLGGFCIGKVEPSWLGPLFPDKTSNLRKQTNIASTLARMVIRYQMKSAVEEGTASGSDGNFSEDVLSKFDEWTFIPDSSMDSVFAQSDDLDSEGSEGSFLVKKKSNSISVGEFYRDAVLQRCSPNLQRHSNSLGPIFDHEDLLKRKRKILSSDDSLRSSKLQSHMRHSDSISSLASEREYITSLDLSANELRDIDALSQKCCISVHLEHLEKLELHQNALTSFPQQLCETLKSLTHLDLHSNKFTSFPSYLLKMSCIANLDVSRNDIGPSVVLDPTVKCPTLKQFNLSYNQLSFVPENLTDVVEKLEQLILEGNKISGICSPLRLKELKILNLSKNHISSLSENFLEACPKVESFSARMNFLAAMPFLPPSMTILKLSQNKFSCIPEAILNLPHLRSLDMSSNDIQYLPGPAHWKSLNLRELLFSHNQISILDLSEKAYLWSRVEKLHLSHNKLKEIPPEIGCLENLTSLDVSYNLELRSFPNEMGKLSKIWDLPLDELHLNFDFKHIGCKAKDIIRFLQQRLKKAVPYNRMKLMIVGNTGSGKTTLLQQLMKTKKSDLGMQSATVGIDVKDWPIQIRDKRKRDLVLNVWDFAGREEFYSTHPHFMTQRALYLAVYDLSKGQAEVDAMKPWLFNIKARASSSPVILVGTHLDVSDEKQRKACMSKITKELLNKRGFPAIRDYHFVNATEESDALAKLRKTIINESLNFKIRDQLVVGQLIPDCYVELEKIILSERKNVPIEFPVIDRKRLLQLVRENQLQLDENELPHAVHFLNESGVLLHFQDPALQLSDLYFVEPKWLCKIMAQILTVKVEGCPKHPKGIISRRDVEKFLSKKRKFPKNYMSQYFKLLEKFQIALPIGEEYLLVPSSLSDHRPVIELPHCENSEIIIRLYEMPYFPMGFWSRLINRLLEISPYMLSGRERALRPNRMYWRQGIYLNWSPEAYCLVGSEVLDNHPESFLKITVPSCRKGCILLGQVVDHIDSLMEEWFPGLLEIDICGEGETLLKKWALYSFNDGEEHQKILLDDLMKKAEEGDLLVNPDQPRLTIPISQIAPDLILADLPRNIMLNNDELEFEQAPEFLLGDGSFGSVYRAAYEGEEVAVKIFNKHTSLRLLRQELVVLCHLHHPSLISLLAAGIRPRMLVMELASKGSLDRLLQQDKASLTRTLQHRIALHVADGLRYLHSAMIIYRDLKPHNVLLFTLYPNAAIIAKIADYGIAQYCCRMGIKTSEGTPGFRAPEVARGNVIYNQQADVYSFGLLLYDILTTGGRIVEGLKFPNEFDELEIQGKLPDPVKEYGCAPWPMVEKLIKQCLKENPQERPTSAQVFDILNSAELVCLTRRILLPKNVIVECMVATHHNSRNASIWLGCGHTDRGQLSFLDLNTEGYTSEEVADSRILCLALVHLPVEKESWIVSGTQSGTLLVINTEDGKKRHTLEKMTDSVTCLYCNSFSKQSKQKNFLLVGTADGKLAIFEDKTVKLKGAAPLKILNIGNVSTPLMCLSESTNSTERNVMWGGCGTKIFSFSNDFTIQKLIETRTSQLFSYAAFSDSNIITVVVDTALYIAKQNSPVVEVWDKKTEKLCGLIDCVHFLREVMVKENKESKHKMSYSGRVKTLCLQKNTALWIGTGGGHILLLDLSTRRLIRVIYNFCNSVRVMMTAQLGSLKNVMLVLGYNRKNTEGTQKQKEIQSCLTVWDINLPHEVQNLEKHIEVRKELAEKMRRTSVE
T2 sequence (Q8C7D2 whole entry, looked up, the tested form may be a part): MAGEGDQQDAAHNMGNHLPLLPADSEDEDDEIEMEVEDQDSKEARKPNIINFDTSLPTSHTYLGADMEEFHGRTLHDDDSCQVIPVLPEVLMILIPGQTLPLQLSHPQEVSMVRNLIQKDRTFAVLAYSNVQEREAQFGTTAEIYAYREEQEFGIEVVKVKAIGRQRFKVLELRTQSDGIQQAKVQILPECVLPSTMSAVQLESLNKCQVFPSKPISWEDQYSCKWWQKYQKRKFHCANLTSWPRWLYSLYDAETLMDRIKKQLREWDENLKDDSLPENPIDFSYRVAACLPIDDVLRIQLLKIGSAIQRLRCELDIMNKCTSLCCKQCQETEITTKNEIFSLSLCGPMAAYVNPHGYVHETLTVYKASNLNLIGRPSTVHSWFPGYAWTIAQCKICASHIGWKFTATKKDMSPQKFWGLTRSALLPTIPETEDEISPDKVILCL
T2 sequence (Q99KY4 whole entry, looked up, the tested form may be a part): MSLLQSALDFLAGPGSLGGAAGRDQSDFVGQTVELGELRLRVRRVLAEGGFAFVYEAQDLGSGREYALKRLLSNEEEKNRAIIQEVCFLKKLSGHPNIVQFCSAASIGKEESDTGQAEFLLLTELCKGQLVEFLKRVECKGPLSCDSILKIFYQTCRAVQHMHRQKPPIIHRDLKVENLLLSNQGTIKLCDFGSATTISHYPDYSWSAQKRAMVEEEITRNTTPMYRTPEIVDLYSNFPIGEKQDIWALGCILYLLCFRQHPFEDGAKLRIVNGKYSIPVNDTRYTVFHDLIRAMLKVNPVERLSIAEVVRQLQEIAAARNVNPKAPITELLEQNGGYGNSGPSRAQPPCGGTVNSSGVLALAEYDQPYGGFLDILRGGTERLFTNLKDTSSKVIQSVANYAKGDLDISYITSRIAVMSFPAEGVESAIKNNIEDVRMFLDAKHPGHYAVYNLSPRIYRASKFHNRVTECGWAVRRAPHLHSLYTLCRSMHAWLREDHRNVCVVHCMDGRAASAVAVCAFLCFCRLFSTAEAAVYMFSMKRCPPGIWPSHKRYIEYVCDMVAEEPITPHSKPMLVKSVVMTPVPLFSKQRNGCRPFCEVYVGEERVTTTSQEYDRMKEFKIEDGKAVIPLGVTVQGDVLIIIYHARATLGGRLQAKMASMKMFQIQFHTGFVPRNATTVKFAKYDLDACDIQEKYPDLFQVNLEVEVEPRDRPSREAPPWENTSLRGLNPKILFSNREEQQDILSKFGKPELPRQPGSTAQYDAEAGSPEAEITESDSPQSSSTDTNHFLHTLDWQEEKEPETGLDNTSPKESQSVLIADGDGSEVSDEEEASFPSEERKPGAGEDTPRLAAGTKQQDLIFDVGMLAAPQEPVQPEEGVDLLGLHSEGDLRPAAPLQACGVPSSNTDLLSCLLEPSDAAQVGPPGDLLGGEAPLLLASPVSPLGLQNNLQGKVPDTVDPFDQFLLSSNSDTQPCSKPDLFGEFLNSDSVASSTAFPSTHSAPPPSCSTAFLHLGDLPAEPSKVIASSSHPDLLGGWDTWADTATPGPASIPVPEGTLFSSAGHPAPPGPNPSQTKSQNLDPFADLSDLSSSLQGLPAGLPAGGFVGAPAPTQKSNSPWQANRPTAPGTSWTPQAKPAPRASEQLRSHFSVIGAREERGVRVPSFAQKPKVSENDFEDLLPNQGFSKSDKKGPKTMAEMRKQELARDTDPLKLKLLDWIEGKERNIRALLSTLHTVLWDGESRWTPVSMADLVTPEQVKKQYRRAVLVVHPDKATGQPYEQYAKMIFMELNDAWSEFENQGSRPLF
Leucine-rich repeat serine/threonine-protein kinase 2 (Homo sapiens, UniProt Q5S007, G2019S), sequence (Q5S007 whole entry G2019S, the tested form may be a part): as the sequence (Q5S007 whole entry, the tested form may be a part) above, with G2019S counted along it
Protein cereblon/Leucine-rich repeat serine/threonine-protein kinase 2 (Homo sapiens), sequence (Q5S007 whole entry, looked up): as the sequence (Q5S007 whole entry, the tested form may be a part) above
Protein cereblon/Leucine-rich repeat serine/threonine-protein kinase 2 (Homo sapiens), sequence (Q96SW2 whole entry, looked up): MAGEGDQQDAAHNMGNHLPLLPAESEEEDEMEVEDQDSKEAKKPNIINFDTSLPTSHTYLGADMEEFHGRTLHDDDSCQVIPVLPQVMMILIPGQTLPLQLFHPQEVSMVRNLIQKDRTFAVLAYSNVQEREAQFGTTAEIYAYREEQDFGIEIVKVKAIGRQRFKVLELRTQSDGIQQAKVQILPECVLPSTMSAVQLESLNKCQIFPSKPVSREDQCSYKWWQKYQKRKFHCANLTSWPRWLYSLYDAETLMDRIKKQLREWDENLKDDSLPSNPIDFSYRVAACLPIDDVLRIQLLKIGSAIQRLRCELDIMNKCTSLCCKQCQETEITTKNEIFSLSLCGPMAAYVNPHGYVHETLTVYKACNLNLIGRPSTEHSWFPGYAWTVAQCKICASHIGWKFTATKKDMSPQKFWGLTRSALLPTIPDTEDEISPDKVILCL
Leucine-rich repeat serine/threonine-protein kinase 2 (Homo sapiens), Q5S007 [G2019S], sequence (Q5S007 whole entry G2019S, the tested form may be a part): as the sequence (Q5S007 whole entry, the tested form may be a part) above, with G2019S counted along it

Turning to `CC1(Oc2ccc3[nH]nc(-c4cc(N5CCN(C(=O)CCOCCOCCOCCOCCNc6cccc7c6C(=O)N(C6CCC(=O)NC6=O)C7=O)CC5)ncn4)c3c2)CC1` (stereo not drawn), the result in assay [1], in assay [7], in assay [9] and in assay [14] was inactive. The outcome in assay [2], in [3], in [4], in [6], in assay [8] and in assay [13] was Active. Further, the result in assay [16], in assay [18], in assay [19] and in [20] was Active. The inhibition in assay [5] and in [17] was > 85% throughout. For the same compound, the inhibition entry in [10] and in [11] was “Active” each time. Further, the half-inhibitory concentration (IC50) in [12] and in assay [15] was 1 nM throughout.
In the case of `CC1(Oc2ccc3[nH]nc(-c4cc(N5CCN(C(=O)CCOCCOCCOCCOCCNc6cccc7c6C(=O)N(C6CCC(=O)NC6=O)C7)CC5)ncn4)c3c2)CC1` (stereo not drawn), the result in [21] was Active. Besides, the concentration for half-maximal inhibition (IC50) in assay [12] and in [15] was 3 nM throughout.
Take `Cc1ncsc1-c1ccc([C@H](C)NC(=O)[C@@H]2C[C@@H](O)CN2C(=O)[C@@H](NC(=O)CCOCCOCCOCCOCCC(=O)N2CCN(c3cc(-c4n[nH]c5ccc(OC6(C)CC6)cc45)ncn3)CC2)C(C)(C)C)cc1`: the results for the IC50 in assay [12] and in assay [15] were 4 nM and 3 nM, respectively.
Turning to `CC1(Oc2ccc3[nH]nc(-c4cc(N5CCN(C(=O)CCOCCOCCNc6cccc7c6C(=O)N(C6CCC(=O)NC6=O)C7=O)CC5)ncn4)c3c2)CC1` (stereo not drawn), the IC50 in assay [12] and in assay [15] was 1 nM throughout. Further, the result in assay [19] was Active.
For the compound `Cc1ncsc1-c1ccc([C@@H](C)NC(=O)[C@H]2C[C@H](O)CN2C(=O)[C@H](NC(=O)CCOCCOCCOCCC(=O)N2CCN(c3cc(-c4n[nH]c5ccc(OC6(C)CC6)cc45)ncn3)CC2)C(C)(C)C)cc1`, the values for the half-inhibitory concentration (IC50) in assay [12] and in assay [15] were 7 nM and 6 nM, respectively.
As for `CC1(Oc2ccc3[nH]nc(-c4cc(N5CCN(C(=O)CCOCCOCCNc6cccc7c6C(=O)N(C6CCC(=O)NC6=O)C7)CC5)ncn4)c3c2)CC1` (stereo not drawn), in assay [21], the result was Active. The IC50 worked out at 2 nM in [12] and 3 nM in [15].
As for `Nc1cccc2c1CN(C1CCC(=O)NC1=O)C2=O` (stereo not drawn), the outcome in [21] was Active.
With `CC1(Oc2ccc3[nH]nc(-c4cc(N5CCN(C(=O)CCOCCNc6cccc7c6C(=O)N(C6CCC(=O)NC6=O)C7=O)CC5)ncn4)c3c2)CC1` (stereo not drawn), the outcome in [21] was Active. For the same compound, the IC50 is 1 nM in assay [12] and 2 nM in assay [15].
For `CC1(Oc2ccc3[nH]nc(-c4cc(N5CCN(C(=O)CCOCCNc6cccc7c6C(=O)N(C6CCC(=O)NC6=O)C7)CC5)ncn4)c3c2)CC1` (stereo not drawn) the same measures were “Active”, 2 nM and 3 nM.
Regarding `O=C1CCC(N2C(=O)c3cccc(NCCCCCNc4cccc5c4C(=O)N(C4CCC(=O)NC4=O)C5=O)c3C2=O)C(=O)N1` (stereo not drawn), the outcome in assay [22] was Active.
Regarding `C[C@@H]1CN(c2cc(-c3n[nH]c4ccc(OC5(C)CC5)cc34)ncn2)C[C@H](C)O1`, the result in assay [23] and in [24] was inactive.
Regarding `CC1(Oc2ccc3[nH]nc(-c4cc(N5CCN(C(=O)CCOCCOCCNc6cccc7c6C(=O)N(C6CCCNC6=O)C7=O)CC5)ncn4)c3c2)CC1` (stereo not drawn), the result in [25] and in [26] was inactive. In addition, the IC50 in assay [12] and in assay [15] was 2 nM in each case. Further, the inhibition result in [27] was “Active”.

A word on the inhibition: it is the drop in the measured response relative to a control, in per cent. By IC50 is commonly meant the concentration that inhibits the measured activity by half.
